Test results published in patent publication US20220040160A1, “COMBINATION OF HISTONE DEACETYLASE INHIBITOR AND IMMUNOTHERAPY” (The United States of America,as represented by the …, priority 2016, published 2022).

Legend:
[1] = tested on: LNCaP prostate carcinoma cells; assay: Antigen-specific CTL lysis, overnight 111In-release assay; format: cell-based, human; conditions: E:T=30:1
Method: (§1) Vorinostat and entinostat were obtained from Selleck Chemicals. Adherent tumor cells in log-growth phase were exposed daily to vehicle (DMSO) or vorinostat at the indicated concentrations for 5 h, over 4 consecutive days. At the end of each treatment, cells were washed in fresh medium and returned to incubation at 37° C. with 5% CO2. Alternatively, cells were continuously exposed to vehicle (DMSO) or entinostat at the indicated concentrations for 72 h.
(§2) Carcinoembryonic antigen (CEA)-specific CTLs recognize the CEA peptide epitope […] (CAP-1) (SEQ ID NO: 1) (Tsang et al., J. Natl. Cancer Inst., 87(13): 982-990 (1995)). Prostate-specific antigen (PSA)-specific CTLs recognize the PSA peptide epitope […] (SEQ ID NO: 2) (Correale et al., J. Natl. Cancer Inst., 89(4): 293-300 (1997)). The mucin-1 (MUC-1)-specific CD8^+ CTL line, designated MUC-1 CTL, recognizes the MUC-1 peptide epitope […] (SEQ ID NO: 3) (Tsang et al., Clin. Cancer Res., 10(6): 2139-2149 (2004)). Brachyury-specific CTLs recognize the brachyury peptide epitope […] (T-p2) (SEQ ID NO: 4) (Tucker et al., Cancer Immunol. Immunother., 63(12): 1307-1317 (2014)). All T-cell lines were HLA-A2-restricted.
Carcinoma cells exposed to vorinostat, entinostat, or vehicle (DMSO) were labeled with ^111In prior to being used as targets for direct lysis by effector CTLs at an effector-to-target ratio of 30:1 in a standard overnight cytotoxicity ^111In-release assay (Gameiro et al., Oncoimmunology, 3: e28643 (2014)).
The effect of clinically relevant vorinostat exposure on prostate and breast carcinoma cells' sensitivity to antigen-specific CTL-mediated lysis was examined. LNCaP and MDA-MB-231 were exposed to vorinostat or to vehicle as before, prior to being used as targets for antigen-specific CTL lysis, using CEA-, brachyury-, MUC-1-, or PSA-specific CD8^+ T cells as effector cells.

[2] = tested on: ER stress response element (ERSE); assay: Luciferase ER stress reporter assay in LNCaP clones; format: cell-based, human; conditions: designated concentrations
Method: as §1

[3] = tested on: prostate and breast carcinoma cells; assay: NK cell mediated lysis of carcinoma cells; format: cell-based, human; conditions: after clinically relevant exposure
Method: Human prostate (LNCaP), breast (MDA-MB-231), and lung (H460) carcinoma cells were exposed to vorinostat or vehicle (DMSO) and the percent lysis was determined. At the end of treatment, the cells were used as targets in a lysis assay wherein NK cells isolated from human PBMCs were used as effectors (varying E:T ratios as indicated in FIG. 7).

[4] = tested on: non-small cell lung cancer (NSCLC); conditions: entinostat given with the DNMT inhibitor azacitidine; subsequent therapies given immediately after epigenetic therapy; cited from earlier work
[5] = tested on: HDAC enzymes (isoforms 1-11); assay: HDAC activity assay (EpiQuik colorimetric kit) on nuclear extracts of treated carcinoma cells; format: cell-based, human; conditions: 1 or 3 μM, 5 h daily over 4 days, at 96 h, vs DMSO
Method: (§3) Vorinostat and entinostat were obtained from Selleck Chemicals.
Changes in the nuclear enzyme activity of HDAC isoforms 1-11 following vorinostat treatment of MDA-MB-231 and LNCaP cells were determined using the colorimetric EpiQuik HDAC Activity/Inhibition Assay Kit (Epigentek). Briefly, 10 μg of extracted nuclear HDAC proteins were incubated with acetylated HDAC substrate for 90 min at 37° C. HDAC deacetylated products were detected following sequential incubation with capture and detection antibodies, according to the manufacturer's specifications.
(§4) Therefore, the in vitro effect of clinically relevant exposure of human prostate (LNCaP) and breast (MDA-MB-231) carcinoma cells to vorinostat on the activity of HDAC enzymes (isoforms 1-11), cellular proliferation, and viability was examined. Tumor cells were exposed daily for 5 h to 1 μM or 3 μM vorinostat, or vehicle (DMSO) over 4 consecutive days, mimicking the range of vorinostat exposure (Cmax, AUC) attained in cancer patients after oral once daily intake of 400 mg (Iwamoto et al., Cancer Chemother. Pharmacol., 72(3): 493-508 (2013)). […] Vorinostat concentration of 3 μM was used for all subsequent experiments.

[6] = tested on: LNCaP prostate carcinoma cells; assay: Cell growth and viability, trypan blue count / Live-Dead flow cytometry; format: cell-based; conditions: 1 or 3 μM, 5 h daily over 4 days
Method: as §1
(§5) Tumor cells were exposed to DMSO or vorinostat as described above. Cells were harvested daily and viable cells were counted by trypan blue exclusion using a Cellometer Auto T4 automated cell counter (Nexcelom Bioscience). Cellular viability was confirmed by flow cytometry using Live/Dead exclusion, according to manufacturer's instructions (Invitrogen).
as §4

[7] = tested on: MDA-MB-231 breast carcinoma cells; assay: as above; format: cell-based; conditions: 1 or 3 μM, 5 h daily over 4 days
Method: as §1, §5, §4

[8] = tested on: MDA-MB-231 breast carcinoma cells; conditions: brachyury-specific CTL, 3 μM
Method: as §1
as §2, with “(T-p2) (SEQ ID NO: 4) (Tucker et al., Cancer Immunol. Immunother., 63(12): 1307-1317 (2014)). All T-cell lines were HLA-A2-restricted.” left out
Silencer® siRNA and negative control siRNA were used to silence HDAC1, ERN1, and PERK in MDA-MB-231 carcinoma cells, according to the manufacturer's instructions (Life Technologies). […] Detection and quantification of band intensity were performed with the Odyssey Infrared Imaging System (LI-COR Biotechnology). […]

[9] = tested on: HLA-A2 negative AsPC-1 pancreatic carcinoma cells; assay: Antigen-specific CTL lysis, HLA-restriction control; format: cell-based, human; conditions: cells exposed to vehicle or vorinostat 3 μM
Method: as §1
as §2, with “HLA-A2-restricted. […]” for “HLA-A2-restricted.”

[10] = tested on: antigen processing machinery (APM) components; assay: Flow cytometry of APM components and surface markers in MDA-MB-231 cells; format: cell-based, human
Method: as §3
Cell-surface and intracytoplasmic staining was performed as previously described (Ogino et al., J. Immunol. Methods, 278(1-2): 33-44 (2003)). Surface staining of tumor cells was performed using the primary labeled monoclonal antibodies HLA-A2-FITC, ICAM-1 (CD54)-PE, CEA (CD66)-FITC, MUC-1 (CD227)-FITC, and the appropriate isotype-matched controls (BD Biosciences). For intracellular analysis of antigen processing machinery (APM) components, mouse IgG1 (MK2-23) isotype control, LMP2 (SY-1)-, LMP7 (HB2)-, TAP-1 (NOB1)-, calnexin (TO-5)-, β2-microglobulin (L368), and tapasin (TO-3)-specific monoclonal antibodies were developed and characterized as described (Bandoh et al., Tissue Antigens, 66(3): 185-194 (2005); Ogino et al., Tissue Antigens, 62(5): 385-393 (2003); and Wang et al., J. Immunol. Methods, 299(1-2): 139-151 (2005)). Cellular fluorescence of 3×10^4 cells was examined on a FACSCalibur flow cytometer using CellQuest software (BD Biosciences).
CTL killing of tumor targets requires T-cell recognition of specific major histocompatibility complex (MHC) Class I/CD8^+ restricted epitope complexes on the surface of tumor cells, an event determined by the cooperative interactions of multiple APM components. […] To test this hypothesis, MDA-MB-231 carcinoma cells were exposed to vorinostat or to vehicle as before. At the end of treatment, cells were examined by flow cytometry for intracellular expression of 6 APM components (FIG. 3).

[11] = tested on: H460 lung carcinoma cells; assay: Avelumab (anti-PD-L1) mediated ADCC with NK effectors; format: cell-based, human; conditions: 3 μM, 5 h daily, 4 days, anti-PD-L1 vs isotype control
Method: Lung (H460) and pancreatic (AsPC-1) carcinoma cells were exposed daily for 5 h to vorinostat (3 uM, black circles and bars) or DMSO (open circles and bars) for 4 consecutive days prior to being used as targets PDL-1-mediated ADCC. Upper panel: cell-surface expression of PDL1 in carcinoma targets. Middle panel: NK lysis in the presence of anti-PDL1 or isotype control Ab. Lower panel: H460 lysis in the presence of anti-PDL1 or isotype control antibodies using NK effector cells pre-incubated with anti-CD16 mAb. Results are presented as mean±S.E.M. from 3 replicate wells and are representative of 2-4 independent experiments. Asterisks denote statistical significance relative to controls (2-way ANOVA).
Human lung (H460) carcinoma cells were exposed to vorinostat and isotype control, anti-CD16, or anti-PD-L1 (avelumab).

[12] = MDA-MB-231, 3 μM, 96 h, intracellular flow cytometry

Compound: Nc1ccccc1NC(=O)c1ccc(CNC(=O)OCc2cccnc2)cc1 [entinostat]
- sensitivity to CTL-mediated killing (PSA-specific CTL) ([1]; entinostat 500 nM, similar to vorinostat 3 μM, P<0.05): increased sensitivity
- activation of ERSE (firefly/renilla luciferase ratio normalized to DMSO) ([2]; entinostat continuous exposure 72 h): activated ERSE in an exposure-dependent manner
- sensitivity to NK cell mediated lysis in vitro [3]: more sensitive
- patients with major objective responses to subsequent anticancer therapies [4]: 4 out of 19

Compound: O=C(CCCCCCC(=O)Nc1ccccc1)NO [vorinostat]
- HDAC activity ([5]; LNCaP prostate carcinoma cells, P=0.0006): significantly decreased
- HDAC activity ([5]; MDA-MB-231 breast carcinoma cells, P=0.0046): significantly decreased
- cellular viability ([6]; at 96 h): no significant effect
- cellular proliferation ([6]; vs vehicle, P<0.0001): significantly decreased
- cellular viability ([7]; at 96 h): no significant effect
- cellular proliferation ([7]; vs vehicle, P<0.0001): significantly decreased
- sensitivity to CTL-mediated lysis targeting MUC-1 ([1]; 3 μM, 5 h daily, 4 days, P<0.0001): significantly more sensitive
- sensitivity to CTL-mediated lysis targeting brachyury ([1]; 3 μM, 5 h daily, 4 days, P=0.0004): significantly more sensitive
- sensitivity to CTL-mediated lysis targeting PSA ([1]; 3 μM, 5 h daily, 4 days, P=0.0011): significantly more sensitive
- sensitivity to CTL-mediated lysis targeting CEA ([1]; 3 μM, 5 h daily, 4 days, P=0.002): significantly more sensitive
- CTL lysis relative to vehicle control ([8]; HDAC1-silenced cells): did not further increase
- increase in CTL sensitivity relative to vehicle controls ([8]; control siRNA, E:T 30:1, P=0.0024): 2 fold
- CTL lysis of HLA-A2 negative targets [9]: absence of significant lysis
- increase in Tapasin expression [10, 12]: 22%
- increase in expression of LMP2 [10, 12]: ≥ 25%
- increase in expression of LMP7 [10, 12]: ≥ 25%
- increase in expression of TAP1 [10, 12]: ≥ 25%
- increase in expression of calnexin [10, 12]: ≥ 25%
- increase in expression of β2-microglobulin [10, 12]: ≥ 25%
- expression of CEA on the surface of tumor cells ([10]; upon exposure to vorinostat): Increased expression
- expression of HLA class I antigens on the surface of tumor cells ([10]; upon exposure to vorinostat): Increased expression
- expression of ICAM-1 on the surface of tumor cells ([10]; upon exposure to vorinostat): Increased expression
- expression of MUC-1 on the surface of tumor cells ([10]; upon exposure to vorinostat): Increased expression
- activation of ERSE (firefly/renilla luciferase ratio normalized to DMSO) ([2]; vorinostat 5 h daily for 4 days): activated ERSE in a dose-dependent manner
- sensitivity to NK cell mediated lysis in vitro [3]: more sensitive
- avelumab-mediated ADCC [11]: increases
